Measurements taken from US9827292B2, “Use of KGF in the treatment of menopausal disorders” (Università degli Studi di Roma “La Sapienza”, priority 2012, dated 2017).

Tests used:
Assay type in all cases: cell-based, human
[1] = test system: oestrogen response elements (EREs); assay: ERE-LUC dual-luciferase reporter assay in MCF-7 cells; conditions: 24 h treatment, FIG. 5
Experimental: MCF-7 cells were seeded onto 24-well plates with a cell/well density of […] and were co-transfected with 1 μg of the 3×ERE TATA LUC construct, a plasmid containing the reporter gene for firefly luciferase under the control of three DNA sequences to which the ER binds, called oestrogen response elements (EREs) (Addgene), and with 300 ng of control pRL-TK plasmid (renilla luciferase) for normalisation of the efficiency of the transfection process. The transfections were carried out using lipofectamine 2000 (Invitrogen) according to manufacturer's instructions. After 6 h, the cells were treated with KGF or E2. The luciferase activity was determined using a dual-luciferase reporter assay system (Promega) 24 h after the treatment, according to manufacturer's protocol. All the transfections were conducted in triplicate.

MAPK p38 = assay: Western blot of p38 phosphorylation in MCF-7 cells; conditions: 20 ng/ml, 5 or 30 minutes, FIG. 2B
Experimental: The oestrogen receptor α-positive MCF-7 human breast adenocarcinoma cell line, acquired from American Type Culture Collection (no. HTB-22, ATCC-LGC Promochem, Teddington, UK), was cultured in Dulbecco's modified eagle's medium (DMEM; Invitrogen, Karlsruhe, Germany), supplemented with 10% foetal bovine serum (FBS; Invitrogen) and antibiotics. Primary cultures of human oestrogen-sensitive keratinocytes (KCs) were established from 1 cm^2 full-thickness mucosal biopsy of the vaginal vestibule. Following enzymatic dissociation, the keratinocytes were seeded onto culture plates coated with collagen IV (10 mg/ml), as previously reported [Panici et al, 2007], and were maintained in basal medium of the keratinocytes (KBM, Lonza) supplemented with aliquots of KGM (Lonza), with medium change twice a week. […]
MCF-7 cells untreated or treated with KGF or E2 were lysed in RIPA buffer. […] The bound antibody was detected by enhanced chemiluminescence detection reagents (Pierce Biotechnology, Inc, Rockford, Ill., USA), according to manufacturer's instructions. […] Densitometric analysis was performed using Quantity One Program (Bio-Rad Laboratories srl, Segrate, MI, Italy).

MAPK ERK1 and 2 = assay: Western blot of ERK phosphorylation in MCF-7 cells; conditions: 20 ng/ml, FIG. 2A; for activation (phosphorylation) of ERK1 and 2: 5 and 30 minutes of treatment
Experimental: The oestrogen receptor α-positive MCF-7 human breast adenocarcinoma cell line, acquired from American Type Culture Collection (no. HTB-22, ATCC-LGC Promochem, Teddington, UK), was cultured in Dulbecco's modified eagle's medium (DMEM; Invitrogen, Karlsruhe, Germany), supplemented with 10% foetal bovine serum (FBS; Invitrogen) and antibiotics. Primary cultures of human oestrogen-sensitive keratinocytes (KCs) were established from 1 cm^2 full-thickness mucosal biopsy of the vaginal vestibule. Following enzymatic dissociation, the keratinocytes were seeded onto culture plates coated with collagen IV (10 mg/ml), as previously reported [Panici et al, 2007], and were maintained in basal medium of the keratinocytes (KBM, Lonza) supplemented with aliquots of KGM (Lonza), with medium change twice a week. For all the experiments with 17β-oestradiol (E2) and tamoxifen, the MCF-7 cells were cultivated in DMEM without phenol red with 10% FBS treated with dextran/carbon (Invitrogen), and the KCs were transferred to a steroid medium of reduced concentration (KGM without EGF and BPE). Both MCF-7 and KC were deprived of serum for 4 hours and then treated for 48 h with human recombinant KGF (Upstate Biotechnology, Lake Placid, N.Y.), E2 (Sigma-Aldrich, Milan, Italy), tamoxifen (Sigma-Aldrich, 100 nM) or combinations thereof.
MCF-7 cells untreated or treated with KGF or E2 were lysed in RIPA buffer. Total proteins (50-150 μg) were broken down under reducing conditions by 7%-10% SDS-PAGE and transferred to Immobilon-FL membranes (Millipore, Billerica, Mass.). The membranes were blocked in TBS containing 0.5% Tween 20 (TBS-T) and 5% milk for 1 hour at 25° C. and were then washed twice for 20 minutes in each case in TBS-T. The membranes were incubated overnight at 4° C. with the primary antibody. […] The bound antibody was detected by enhanced chemiluminescence detection reagents (Pierce Biotechnology, Inc, Rockford, Ill., USA), according to manufacturer's instructions. […] Densitometric analysis was performed using Quantity One Program (Bio-Rad Laboratories srl, Segrate, MI, Italy).

C[C@]12CC[C@@H]3c4ccc(O)cc4CC[C@H]3[C@@H]1CC[C@@H]2O [E2, 17β-oestradiol]
activation of ERE-luciferase construct (genomic pathway) [1]: able to determine the activation of such a construction | phosphorylation of p38 (MAPK p38): able to phosphorylate the protein p38 | activation (phosphorylation) of ERK1 and 2 (MAPK ERK1 and 2): less consistent rise in the levels of phosphorylation of ERK1 and 2 limited to 5 min of treatment | activation of ERK 1 and 2 at longer times (MAPK ERK1 and 2; 30 min): considerably reduced

B1: keratinocyte growth factor (protein, listed as Homo sapiens)
chain: MHKWILTWILPTLLYRSCFHIICLVGTISLACNDMTPEQMATNVNCSSPERHTRSYDYMEGGDIRVRRLFCRTQWYLRIDKRGKVKGTQEMKNNYNIMEIRTVAVGIVAIKGVESEFYLAMNKEGKLYAKKECNEDCNFKELILENHYNTYASAKWTHNGGEMFVALNQKGIPVRGKKTKKEQKTAHFLPMAIT
notes: human recombinant KGF (Upstate Biotechnology)
activation of ERE-luciferase construct (genomic pathway) [1]: absence of stimulation of the genomic pathway of the oestrogens | phosphorylation of p38 (MAPK p38): able to phosphorylate the protein p38 | activation (phosphorylation) of ERK1 and 2 (MAPK ERK1 and 2): consistent and constant activation of MAPK
